Experiments:
[1] = system: PLC/PRF/5 HCC cell line; test: MTT cytotoxicity assay and CI-isobologram, PLC/PRF/5; assay type: cell-based; settings: for IC50: Homo sapiens, PLC/PRF/5, 72 h, single drug; for combinational effect with Disulfiram-PLGA (CI-isobologram): PLC/PRF/5, Cu 1 μM; for sensitivity of cells at hypoxic condition: PLC/PRF/5, hypoxic versus normoxic culture, 72 h
Description: (§1) The PLC/PRF/5 and Huh7 HCC cell lines were cultured in DMEM (Lonza, Wokingham, UK) supplemented with 10% FCS, 50 units/ml penicillin, 50 μg/ml streptomycin.
(§2) The IC50s from single and two-drug-treated cells were detected. […] The combination index (CI) was determined by mutually exclusive equations.

[2] = system: Huh7 HCC cell line; test: MTT cytotoxicity assay and CI-isobologram, Huh7; assay type: cell-based; settings: for IC50: Homo sapiens, Huh-7, Huh7, 72 h, single drug; for combinational effect with Disulfiram-PLGA (CI-isobologram): Huh7, Cu 1 μM; for sensitivity of cells at hypoxic condition: Huh7, hypoxic versus normoxic culture, 72 h
Description: as §1, §2

[3] = system: PLC/PRF/5 cells; test: Clonogenic assay, PLC/PRF/5; assay type: cell-based; settings: 6 h exposure, 10 days culture, 5-FU 200 μM, Sorafenib 20 μM, CuCl2 1 μM, disulfiram-PLGA 200 nM
Description: (§3) […] The cells were collected and sub-cultured in 6-well plates containing drug-free medium at a cell density of 10^3/well. After 10 days culture, the clonogenic cells were determined by counting the colonies containing at least 50 cells.
(§4) The treated cells were collected and sub-cultured in 6-well plates containing drug-free medium at a cell density of 500 cells/well for another 10 days.

[4] = system: Huh7 cells; test: Clonogenic assay, Huh7; assay type: cell-based; settings: 6 h exposure, 10 days culture, 5-FU 200 μM, Sorafenib 20 μM, CuCl2 1 μM, disulfiram-PLGA 200 nM
Description: as §3, §4

[5] = system: a wide range of cancer types; settings: read-out: IC50s of disulfiram; cited from earlier work
[6] = cited from earlier work
[7] = assay type: in vitro ADME; settings: horse, 100 μg/ml
Description: The eppendoff tubes were collected and protein was precipitated by the addition of 300 μl of absolute methanol at different time intervals. The supernatant was then subjected to HPLC measurement.
The free disulfiram was rapidly degraded in the serum to undetectable levels within 30 seconds (FIG. 1E). In contrast, disulfiram commenced its release from PLGA nanoparticles at 2 min which was equivalent to 34.23±3.38% of the initial drug loading and peaked in 4 min at 51.27±5.98% of the initial drug loading. The controlled release lasted for at least 24 hours. […] Importantly, after 4 hours incubation, the disulfiram concentration in the serum still remained at ˜90 μM which is markedly higher than the IC50s of disulfiram in a wide range of cancer types (˜50-500 nM).

[8] = system: PLC/PRF/5 xenografts; test: Liver cancer xenograft experiments; assay type: in vivo, BALB/c Nu/Nu athymic nude mice; settings: copper alone (CuGlu 6 mg/kg p.o.)
Description: PLC/PRF/5 cells (5×10^5) were subcutaneously injected at one front flank of the mice. When the tumor volume reached ˜200 mm^3, the tumor bearing mice were randomly subdivided into 6 groups (8 mice/group) e.g. control, CuGlu 6 mg/kg p.o., empty nanoparticles+CuGlu 6 mg/kg p.o., PLGA-disulfiram 2.5 mg/kg i.v.+CuGlu 6 mg/kg p.o., PLGA-disulfiram 5 mg/kg i.v.+CuGlu 6 mg/kg p.o., PLGA-disulfiram 10 mg/kg i.v.+CuGlu 6 mg/kg p.o. The drugs were administered 3 times/week for successive 3 weeks.
Five-week-old female BALB/c Nu/Nu athymic nude mice (Biotechology & Cell Biology Shanghai, China) were housed under pathogen-free conditions. PLC/PRF/5 cells (5×10^5) were subcutaneously injected at one front flank of the mice. When the tumour volume (V) reached ˜200 mm^3, the tumour bearing mice were randomly subdivided into 6 groups (8 mice/group) and treated 3 times/week e.g. control; copper gluconate (CuGlu) 6 mg/kg p.o., empty nanoparticles+CuGlu 6 mg/kg p.o., PLGA-disulfiram 2.5 mg/kg i.v.+CuGlu 6 mg/kg p.o.; PLGA-disulfiram 5 mg/kg i.v.+CuGlu 6 mg/kg p.o., PLGA-disulfiram 10 mg/kg i.v.+CuGlu 6 mg/kg p.o. The tumour volume was calculated by the following formula: V=(L×W^2)×0.5, where L is the length and W is the width of the tumour. The xenograft size was observed and recorded trice per week for 3 weeks. The animals were sacrificed after three weeks. […]

time to degradation to undetectable levels in serum [7] | Molecule | IC50 [1] | combinational effect with Disulfiram-PLGA (CI-isobologram) [1] | sensitivity of cells at hypoxic condition [1] | IC50 [2] | combinational effect with Disulfiram-PLGA (CI-isobologram) [2] | sensitivity of cells at hypoxic condition [2] | colony numbers versus control [3] | colony numbers versus control [4] | IC50 [5] | previously published half-life data [6] | effect on tumor growth [8]
 | O=c1[nH]cc(F)c(=O)[nH]1 [5-FU, 5-fluorouracil] | 123 µM | very significant synergistic | significantly resistant | 103 µM | very significant synergistic | significantly resistant | no significant difference | no significant difference |  |  | 
 | [Cl][Cu][Cl] [CuCl2, copper(II) chloride] |  |  |  |  |  |  | no significant difference | no significant difference |  |  | 
 | CNC(=O)c1cc(Oc2ccc(NC(=O)Nc3ccc(Cl)c(C(F)(F)F)c3)cc2)ccn1 [Sorafenib] | 30.9 µM | very significant synergistic | significantly resistant | 22.9 µM | very significant synergistic | significantly resistant | no significant difference | no significant difference |  |  | 
≤ 30 s | CCN(CC)C(=S)SSC(=S)N(CC)CC [free disulfiram, Disulfiram] |  |  |  |  |  |  |  |  | 0.05 to 0.5 µM | 4 min | 
 | copper gluconate |  |  |  |  |  |  |  |  |  |  | no effect
